One molecule from patent US6433012B1, “Method for inhibiting inflammatory disease” (Large Scale Biology Corp., priority 1998, dated 2002) can be followed below.

One may read the % Inhibition as the relative decrease from the control value, in per cent. Usually IC50 stands for the midpoint of a concentration-inhibition curve.

Data set [1] has as its system angiogenesis induced by hFGF-B in the chick chorioallantoic membrane (CAM). The experiment in a line: Chick chorioallantoic membrane (CAM) assay, 14C-proline incorporation into collagenous protein. Type of data set: in vivo. Set-up: inhibition of hFGF-B-induced angiogenesis: dose or concentration left out as unconfirmed. The source says:
This example illustrates the anti-angiogenic properties of methyl-3,5-diiodo-4-(4′-methoxyphenoxy)benzoate in the chick chorioallantoic membrane assay (CAM). The endpoint of the CAM assay was a quantitative determination of basement membrane biosynthesis by measuring the incorporation of ^14C-proline into Type IV collagenous protein.
The CAM assay involves the development of live chick embryos in Petri dishes under special sterile conditions. Therefore, only limited numbers of embryos can be used for evaluation of compounds in a single experiment. For this reason, two separate assays were conducted to test the three Biosource compounds at three concentrations per compound. In this assay, a known angiogenesis inhibitor, 2-methoxyestradiol (2-ME), was used as the positive control, and human fibroblast growth factor (hFGF) was used to induce angiogenesis in the CAM.
For testing, a minimum amount of acetone-methanol (1:1) was added to the test compounds for sterilization. The acetone-methanol mixture was then evaporated to dryness in a sterile hood. The compounds were dissolved dimethyl sulfoxide (DMSO) first and then diluted with saline containing methylcellulose. The final concentrations were 2% DMSO and 0.5% methylcellulose. All test solutions were added to each CAM in […].
Fresh fertile eggs were incubated for three days in a standard egg incubator. On Day 3, eggs were cracked under sterile conditions and embryos were placed in 20×100 mm plastic Petri dishes and cultivated at 37° C. in an embryo incubator with a water reservoir on the bottom shelf. Air was continuously bubbled into the water reservoir by using a small pump so that the humidity in the incubator was kept constant. Observations were made daily to ensure that all embryos were healthy. Dead or unhealthy embryos were removed from the incubator immediately to avoid contamination. On Day 9, a sterile silicone ring cup was placed on each CAM and […] of ^14C-proline with or without the test compound plus 2.5 ng of hFGF dissolved in saline containing 0.5% methylcellulose was delivered into each ring cup in a sterile hood. 2-ME was tested in parallel to serve as a reference compound. After addition of test materials, the embryos were returned to the incubator and cultivation continued. On Day 12, all embryos were transferred to a cold room at 4-10° C. The antiangiogenic effect of each test compound was determined by using the collagenase assay (Maragoudakis, et al., J. Pharm. Exp. Ther. 251:679-682 (1989)) to measure ^14C-proline incorporation into collagenous protein.
With the embryos placed on ice, a piece of CAM 10 mm in diameter was cut off under each ring cup and placed in a separate tube. To each tube was added 1.0 mL of phosphate-buffered saline (PBS, pH 7.3) containing 0.11 mg cycloheximide and 0.17 mg dipyridyl. The tubes were placed in a boiling water bath for 10 min and then cooled to room temperature. The PBS in each tube was discarded after centrifugation at 3000× g for 10 min. The CAM residue was washed once with 3 mL of 15% TCA and then three times with 3 mL of 5% TCA. Centrifugation was carried out as described above between each washing. At this point all non-protein bound radioactivity was removed, and the CAM containing the newly synthesized ^14C-collagenous protein was suspended in 0.9 mL of 0.1 N NaOH and 1.1 mL of HEPES buffer at pH 7.4. The pH of the sample was neutralized with 0.8 N HCl, using phenol red as indicator.
To digest the ^14C-collagenous protein, 7.5 units of collagenase and 500 nmol of calcium chloride in […] of HEPES buffer was added to the above samples, and mixtures were incubated at 37° C. for 4 h. The reaction was stopped by adding 1.0 mL of 20% TCA containing 5 mg of tannic acid into each tube. After vortex mixing, the samples were centrifuged at 3000× g for 10 min. […]

A short description of data set [2]: Oral (gavage) toxicity in nude mice. The settings on record: doses as high as 1,000 mg/kg-day for 60 to 180 days. Type of data set: in vivo.
Data set [3] relates to OVCAR-3 human ovarian carcinoma xenografts. Briefly: Tumor growth delay, OVCAR-3 xenografts. Type of data set: in vivo, nude mice. To be noted: oral treatment, at 5 weeks. The method, then:
(§1) Intraperitoneally administered cyclophosphamide (CTX; Cytoxan; 150 mg/kg), which is used in some regimens for adjuvant breast cancer therapy was used as a positive control.

Data set [4] relates to MDA MB-231 human breast carcinoma xenografts. The experiment in a line: Tumor growth delay, MDA MB-231 xenografts. The class given is in vivo, Swiss NCr nude (nu/nu) female mice. The settings on record: oral treatment, 6 weeks of therapy. Here is the method:
as §1

The next data set deals with MDA MB-231 cell cultures. The experiment in a line: Cytotoxicity in vitro (reduction of cell number). The class given is cell-based. The settings on record: Homo sapiens, treated for 48 h, read-out: IC50 (50% reduction of cell number relative to vehicle-treated control).
[5] abbreviates: Table 1 experiment, dose 8.3 μg/CAM.
The mark [6] stands for this setting: Table 1 experiment, dose 25 μg/CAM.
Where [7] appears, read: Table 1 experiment, dose 75 μg/CAM.
Where [8] appears, read: Table 2 experiment, dose 8.3 μg/CAM.
Setting [9] is: Table 2 experiment, dose 25 μg/CAM.
[10] abbreviates: Table 2 experiment, dose 75 μg/CAM.

Molecules are shown by their SMILES. Marks after values point to notes of the source that are not given here.

`COC(=O)c1cc(I)c(Oc2ccc(OC)cc2)c(I)c1` [BTO-956, methyl-3,5-diiodo-4-(4′-methoxyphenoxy)benzoate]: the “inhibition of hFGF-B-induced angiogenesis” value in data set [1] is on record as 30%. The “% Inhibition” value was determined as 0% in data set [1] (setting [5]); 19% in data set [1] (setting [6]); 31% in data set [1] (setting [7]); 10% in data set [1] (setting [8]); 18% in data set [1] (setting [9]); 32% in data set [1] (setting [10]). Moreover, the “^14C-Proline Incorporated into Collagenous Protein (mean ± S.E.)” value in data set [1] (setting [5]) is 6884 ± 1395 cpm/mg-protien; in data set [1] (setting [6]), 5098 ± 785 cpm/mg-protien; in data set [1] (setting [7]), 4374 ± 651 cpm/mg-protien; in data set [1] (setting [8]) it was 10138 ± 1625 cpm/mg-protien; in data set [1] (setting [9]), 9100 ± 1664 cpm/mg-protien; in data set [1] (setting [10]), 7534 ± 1099^a cpm/mg-protien. Moreover, in data set [2], the gross pathology entry is given as “No other gross pathology”. In data set [2], the “liver and kidney weights” value is “only slight and transient increases”. In data set [3], the “relative mean tumor volume, fold less than vehicle-treated controls” value was “approximately 5 fold”. In addition, the “growth of tumors (relative mean tumor volume)” value in data set [4] was “suppressed”. The IC50 in the data set with MDA MB-231 cell cultures amounted to 300 nM.
